Laboratory results reported in the supplement of paper PMC10307832.

Compound: Cc1nc(C(=O)NCC(=O)O)c(O)c2ccc(Oc3ccccc3)cc12 [FG-4592] + N=C(N)NC(=N)NCCc1ccccc1 [Phenformin] (partner 250 µM)
Test: relative viability (nuclei count vs DMSO), 5 days (fraction); higher = more cells survive
Settings: first compound 0.08 µM
In short: (§1)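 Dosing by pin tool came one day after lung cancer cell lines were seeded in 1536-well plates, using either one drug or a fixed anchor-drug dose plus five library-drug doses (not always all listed) in √10 steps. After 5 days, nuclei were counted on 4× images. Relative viability is treated-well nuclei count divided by vehicle-well nuclei count, and values are medians of duplicate plates.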

Row | Cell Line | relative viability
1 | SW 1573 | 0.388
2 | NCI-H838 | 0.545
3 | LCLC-103H | 0.3
4 | NCI-H520 | 0.31
5 | NCI-H2126 | 0.554
6 | EMC-BAC-2 | 0.496
7 | NCI-H2085 | 0.646
8 | HCC-366 | 0.554
9 | NCI-H1666 | 0.611
10 | NCI-H596 | 0.637
11 | LK-2 | 0.365
12 | NCI-H2087 | 0.519
13 | NCI-H2342 | 0.521
14 | SK-MES-1 | 0.626
15 | H3255 | 0.359
16 | COR-L23 | 0.467
17 | COR-L 105 | 0.46
18 | LOU-NH91 | 0.673
19 | ChaGo-K-1 | 0.525
20 | NCI-H2170 | 0.381
21 | A549 | 0.166
22 | NCI-H1563 | 0.663

Same assay, conditions: first compound 0.253 µM

Row | Cell Line | relative viability
23 | NCI-H522 | 0.583
24 | NCI-H1623 | 0.609
25 | NCI-H727 | 0.341
26 | NCI-H1650 | 0.448
27 | NCI-H1993 | 0.427
28 | SW 1573 | 0.346
29 | NCI-H838 | 0.581
30 | LCLC-103H | 0.325
31 | NCI-H520 | 0.595
32 | NCI-H2126 | 0.5
33 | EMC-BAC-2 | 0.516
34 | NCI-H2085 | 0.618
35 | HCC-366 | 0.608
36 | NCI-H1666 | 0.518
37 | NCI-H596 | 0.712
38 | LK-2 | 0.449
39 | NCI-H2087 | 0.416
40 | NCI-H2342 | 0.531
41 | SK-MES-1 | 0.66
42 | H3255 | 0.345
43 | COR-L23 | 0.375
44 | COR-L 105 | 0.432
45 | LOU-NH91 | 0.647
46 | ChaGo-K-1 | 0.478
47 | NCI-H2170 | 0.359
48 | A549 | 0.154
49 | NCI-H1563 | 0.735

Same assay, conditions: first compound 0.8 µM

Row | Cell Line | relative viability
50 | NCI-H522 | 0.562
51 | NCI-H1623 | 0.595
52 | NCI-H727 | 0.378
53 | NCI-H1650 | 0.338
54 | NCI-H1993 | 0.5
55 | SW 1573 | 0.435
56 | NCI-H838 | 0.5
57 | LCLC-103H | 0.248
58 | NCI-H2126 | 0.51
59 | EMC-BAC-2 | 0.414
60 | NCI-H2085 | 0.536
61 | HCC-366 | 0.626
62 | NCI-H1666 | 0.613
63 | NCI-H596 | 0.512
64 | NCI-H2087 | 0.454
65 | NCI-H2342 | 0.519
66 | SK-MES-1 | 0.669
67 | H3255 | 0.361
68 | COR-L23 | 0.477
69 | COR-L 105 | 0.456
70 | LOU-NH91 | 0.551
71 | ChaGo-K-1 | 0.44
72 | NCI-H2170 | 0.494
73 | A549 | 0.159
74 | NCI-H1563 | 0.684

Same assay, conditions: first compound 2.53 µM

Row | Cell Line | relative viability
75 | NCI-H522 | 0.669
76 | NCI-H1623 | 0.517
77 | NCI-H727 | 0.643
78 | NCI-H1650 | 0.586
79 | NCI-H1993 | 0.421
80 | SW 1573 | 0.372
81 | NCI-H838 | 0.505
82 | LCLC-103H | 0.294
83 | NCI-H520 | 0.51
84 | NCI-H2126 | 0.492
85 | EMC-BAC-2 | 0.509
86 | NCI-H2085 | 0.592
87 | HCC-366 | 0.615
88 | NCI-H1666 | 0.377
89 | NCI-H596 | 0.72
90 | LK-2 | 0.33
91 | NCI-H2087 | 0.493
92 | NCI-H2342 | 0.613
93 | SK-MES-1 | 0.596
94 | H3255 | 0.33
95 | COR-L23 | 0.411
96 | COR-L 105 | 0.437
97 | LOU-NH91 | 0.677
98 | ChaGo-K-1 | 0.466
99 | NCI-H2170 | 0.43
100 | A549 | 0.191
101 | NCI-H1563 | 0.665

Same assay, conditions: first compound 8 µM

Row | Cell Line | relative viability
102 | NCI-H522 | 0.641
103 | NCI-H1623 | 0.542
104 | NCI-H727 | 0.609
105 | NCI-H1650 | 0.51
106 | NCI-H1993 | 0.507
107 | SW 1573 | 0.35
108 | NCI-H838 | 0.583
109 | LCLC-103H | 0.319
110 | NCI-H520 | 0.465
111 | NCI-H2126 | 0.461
112 | EMC-BAC-2 | 0.454
113 | NCI-H2085 | 0.647
114 | HCC-366 | 0.599
115 | NCI-H1666 | 0.562
116 | NCI-H596 | 0.473
117 | LK-2 | 0.264
118 | NCI-H2087 | 0.529
119 | NCI-H2342 | 0.469
120 | SK-MES-1 | 0.674
121 | H3255 | 0.323
122 | COR-L23 | 0.437
123 | COR-L 105 | 0.45
124 | LOU-NH91 | 0.677
125 | ChaGo-K-1 | 0.492
126 | NCI-H2170 | 0.503
127 | A549 | 0.216
128 | NCI-H1563 | 0.603

Compound: CC1=CC(=C(N1C2=CC=C(C=C2)Cl)C)C(=O)CN3CCCCC3 [IU1-47] + N=C(N)NC(=N)NCCc1ccccc1 [Phenformin] (partner 250 µM)
Test: as above
Settings: first compound 0.08 µM
In short: as §1

Row | Cell Line | relative viability
129 | NCI-H522 | 0.577
130 | NCI-H1623 | 0.634
131 | NCI-H727 | 0.675
132 | NCI-H1650 | 0.412
133 | NCI-H1993 | 0.488
134 | SW 1573 | 0.394
135 | NCI-H838 | 0.559
136 | LCLC-103H | 0.334
137 | NCI-H520 | 0.602
138 | NCI-H2126 | 0.535
139 | EMC-BAC-2 | 0.548
140 | NCI-H2085 | 0.736
141 | HCC-366 | 0.648
142 | NCI-H1666 | 0.609
143 | NCI-H596 | 0.786
144 | LK-2 | 0.467
145 | NCI-H2087 | 0.469
146 | NCI-H2342 | 0.628
147 | SK-MES-1 | 0.729
148 | H3255 | 0.426
149 | COR-L23 | 0.414
150 | COR-L 105 | 0.418
151 | LOU-NH91 | 0.855
152 | ChaGo-K-1 | 0.464
153 | NCI-H2170 | 0.48
154 | A549 | 0.165
155 | NCI-H1563 | 0.657

Same assay, conditions: first compound 0.253 µM

Row | Cell Line | relative viability
156 | NCI-H522 | 0.595
157 | NCI-H1623 | 0.61
158 | NCI-H727 | 0.712
159 | NCI-H1650 | 0.367
160 | NCI-H1993 | 0.493
161 | SW 1573 | 0.353
162 | NCI-H838 | 0.578
163 | LCLC-103H | 0.369
164 | NCI-H520 | 0.484
165 | NCI-H2126 | 0.515
166 | EMC-BAC-2 | 0.569
167 | NCI-H2085 | 0.711
168 | HCC-366 | 0.561
169 | NCI-H1666 | 0.527
170 | NCI-H596 | 0.61
171 | LK-2 | 0.504
172 | NCI-H2087 | 0.503
173 | NCI-H2342 | 0.558
174 | SK-MES-1 | 0.76
175 | H3255 | 0.358
176 | COR-L23 | 0.45
177 | COR-L 105 | 0.438
178 | LOU-NH91 | 0.942
179 | ChaGo-K-1 | 0.545
180 | NCI-H2170 | 0.435
181 | A549 | 0.105
182 | NCI-H1563 | 0.691

Same assay, conditions: first compound 0.8 µM

Row | Cell Line | relative viability
183 | NCI-H522 | 0.708
184 | NCI-H1623 | 0.642
185 | NCI-H727 | 0.56
186 | NCI-H1650 | 0.419
187 | NCI-H1993 | 0.516
188 | SW 1573 | 0.367
189 | NCI-H838 | 0.549
190 | LCLC-103H | 0.326
191 | NCI-H520 | 0.59
192 | NCI-H2126 | 0.508
193 | EMC-BAC-2 | 0.53
194 | NCI-H2085 | 0.713
195 | HCC-366 | 0.648
196 | NCI-H1666 | 0.539
197 | NCI-H596 | 0.78
198 | LK-2 | 0.432
199 | NCI-H2087 | 0.548
200 | NCI-H2342 | 0.694
201 | SK-MES-1 | 0.66
202 | H3255 | 0.294
203 | COR-L23 | 0.472
204 | COR-L 105 | 0.506
205 | LOU-NH91 | 0.771
206 | ChaGo-K-1 | 0.428
207 | NCI-H2170 | 0.389
208 | A549 | 0.144
209 | NCI-H1563 | 0.629

Same assay, conditions: first compound 2.53 µM

Row | Cell Line | relative viability
210 | NCI-H522 | 0.585
211 | NCI-H1623 | 0.576
212 | NCI-H727 | 0.63
213 | NCI-H1650 | 0.366
214 | NCI-H1993 | 0.506
215 | SW 1573 | 0.421
216 | NCI-H838 | 0.562
217 | LCLC-103H | 0.423
218 | NCI-H520 | 0.626
219 | EMC-BAC-2 | 0.627
220 | NCI-H2085 | 0.771
221 | HCC-366 | 0.584
222 | NCI-H1666 | 0.584
223 | NCI-H596 | 0.709
224 | LK-2 | 0.579
225 | NCI-H2342 | 0.552
226 | SK-MES-1 | 0.662
227 | H3255 | 0.365
228 | COR-L23 | 0.438
229 | COR-L 105 | 0.501
230 | LOU-NH91 | 0.672
231 | ChaGo-K-1 | 0.579
232 | NCI-H2170 | 0.414
233 | NCI-H1563 | 0.709

Same assay, conditions: first compound 8 µM

Row | Cell Line | relative viability
234 | NCI-H522 | 0.647
235 | NCI-H1623 | 0.551
236 | NCI-H727 | 0.387
237 | NCI-H1650 | 0.326
238 | NCI-H1993 | 0.498
239 | SW 1573 | 0.382
240 | NCI-H838 | 0.318
241 | LCLC-103H | 0.298
242 | NCI-H520 | 0.346
243 | NCI-H2126 | 0.529
244 | EMC-BAC-2 | 0.409
245 | NCI-H2085 | 0.675
246 | HCC-366 | 0.594
247 | NCI-H1666 | 0.544
248 | NCI-H596 | 0.677
249 | LK-2 | 0.239
250 | NCI-H2087 | 0.441
251 | NCI-H2342 | 0.593
252 | SK-MES-1 | 0.575
253 | H3255 | 0.352
254 | COR-L23 | 0.492
255 | COR-L 105 | 0.454
256 | LOU-NH91 | 0.698
257 | ChaGo-K-1 | 0.451
258 | NCI-H2170 | 0.403
259 | A549 | 0.0832
260 | NCI-H1563 | 0.584
